Molecular target: T1, GRK2 (Homo sapiens, UniProt P25098)
T1 sequence (P25098 1-689): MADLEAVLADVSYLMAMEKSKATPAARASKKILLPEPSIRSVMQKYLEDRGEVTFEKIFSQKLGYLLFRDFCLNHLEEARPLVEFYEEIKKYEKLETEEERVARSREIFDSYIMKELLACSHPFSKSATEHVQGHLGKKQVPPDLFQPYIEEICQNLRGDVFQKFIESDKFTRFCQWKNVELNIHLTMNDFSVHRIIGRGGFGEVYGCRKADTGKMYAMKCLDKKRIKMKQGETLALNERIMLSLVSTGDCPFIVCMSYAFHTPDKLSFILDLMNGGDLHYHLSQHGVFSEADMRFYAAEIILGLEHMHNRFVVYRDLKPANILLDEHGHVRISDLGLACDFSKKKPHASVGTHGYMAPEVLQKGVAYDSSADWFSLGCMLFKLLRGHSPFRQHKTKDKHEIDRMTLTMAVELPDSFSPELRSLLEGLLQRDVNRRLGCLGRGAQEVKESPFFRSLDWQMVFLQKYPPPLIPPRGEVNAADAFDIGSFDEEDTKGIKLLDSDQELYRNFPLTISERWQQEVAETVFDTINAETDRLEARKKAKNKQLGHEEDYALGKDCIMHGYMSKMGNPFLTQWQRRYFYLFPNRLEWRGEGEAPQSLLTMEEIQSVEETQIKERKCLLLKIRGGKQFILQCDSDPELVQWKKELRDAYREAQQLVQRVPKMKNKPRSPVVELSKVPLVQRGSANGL
Test: hGRK2 LANCE Ultra In Vitro Assay
Format: biochemical
Settings: Biological Example 1 GRK2 Lancer IC50 (μM), 10 nM GRK2; 30 or 600 μM ATP (not stated which); multiple measurements listed individually
Protocol: hGRK2 LANCE Ultra In Vitro Assay
G-protein coupled receptor kinases (GR Kinases) desensitize activated G-protein coupled receptors (GPCRs), by phosphorylation of cytoplasmic loops or carboxyl-terminal tails of GPCRs. GRK2 is one of the 6 different GR kinases and is implicated in heart failure and diabetes.
This assay is sensitive and requires as low as 10 nM enzyme, in a total volume of 10 μL. In addition, the ATP concentration can be varied over a broad range, without interfering with the assay or changing the assay condition. […] Testing inhibitors routinely at both high and low ATP concentrations also enables identification of potential non-ATP competitive inhibitors.
Paroxetine was used as the reference compound in this assay.
Test compounds were dissolved in DMSO at 1 mM and were 3-fold serial diluted. The compound DMSO solutions were then added (100 nL) into a plate well using an acoustic dispenser. To each well was then added 20 nM GRK2 (5 μL) in assay buffer (20 mM HEPES, pH 7.5, 10 mM MgCl2, 0.001% Tween-20®). The plate was sealed and centrifuged at 1000 rpm for 1 min. The plate and wells containing a mixture of GRK2 and test compound were incubated at ambient temperature for 30 min (prior to initializing the enzymatic reaction).
Enzyme reactions were initiated by the addition of 4.9 μL Substrates/Eu-Ab mix to each well. […] Final concentrations of reagents in the assays were as follows: 20 mM HEPES, pH 7.5; 10 mM MgCl2; 0.001% Tween-20® (w/v); 30 or 600 μM ATP; 200 nM ULight-peptide; 4 nM Eu-Ab; 10 nM GRK2; and 1% DMSO.
The plates were sealed and centrifuged at 1000 rpm for 1 min. For reactions at low ATP concentration (30 μM), reaction mixtures were incubated at ambient temperature for 120 min. For reactions at high ATP concentration (600 μM), reaction mixtures were incubated at ambient temperature for 60 min.
The enzyme reactions were quenched by addition of 10 μL of 12 mM EDTA in 1× LANCE detection solution to each well. The plates were then incubated at ambient temperature for 30 min. Time-resolved fluorescence signal of reactions were read on an EnVision or PHERAstar plate reader with the following parameters: Excitation wavelength=337 nm; emission wavelength (donor)=620 nm; emission wavelength (acceptor)=665 nm.
The raw HTRF data were converted to % active as follows:
% active=(sample−NC)/(PC−NC)*100
where NC is the mean of negative control (reactions without GRK2), and PC is the mean of positive control (reactions with GRK2 but without inhibitor). IC50 values were determined from a 4-parameter fit, using the following equation:
Y=Bottom+(Top−Bottom)/(1+10^((Log IC50−X)*Hill slope))
where X=log10 of the compound concentration.

Point of comparison: O=C(O)COc1cccc(CN2Cc3ccc(-c4ccnc5[nH]ccc45)cc3C2=O)c1 [Compound 57], IC50 2.56 µM. Against it:
- COc1cccc([C@@H](C)N2C(=O)c3cc(-c4cn[nH]c4)ccc3C23CCC(O)C3)c1 (mixture of isomers) [Compound 173] — 28-fold lower, 0.092 µM
- COc1cccc(C(CO)N2Cc3ccc(-c4cn[nH]c4)cc3C2=O)c1 (racemic) [Compound 38, 2-(2-hydroxy-1-(3-methoxyphenyl)ethyl)-6-(1H-pyrazol-4-yl)isoindolin-1-one] — 430-fold lower, 0.006 µM
- COc1cccc([C@@H](C)N2C(=O)c3cc(-c4cn[nH]c4)ccc3[C@@H]2CC(=O)O)c1 (single isomer, unassigned) [Compound 97] — 210-fold lower, 0.012 µM
- COc1cccc([C@@H](C)N2C(=O)c3cc(-c4cn[nH]c4)ccc3[C@H]2CC(=O)O)c1 (single isomer, unassigned) [Compound 98] — 24-fold lower, 0.106 µM
- COc1cccc(C(CO)N2Cc3ccc(-c4cn[nH]c4)cc3C2=O)c1 (single isomer, unassigned) [Compound 113, 2-[(1S*)-2-hydroxy-1-(3-methoxyphenyl)ethyl]-6-(1H-pyrazol-4-yl)isoindolin-1-one] — 850-fold lower, 0.003 µM
- COc1cccc(C(CO)N2Cc3ccc(-c4cn[nH]c4)cc3C2=O)c1 (single isomer, unassigned) [Compound 172] — 17-fold lower, 0.148 µM
- Cc1ccc(CN2Cc3ccc(-c4cn[nH]c4)cc3C2=O)s1 [Compound 27] — 7.9-fold lower, 0.324 µM
- O=C1c2cc(-c3cn[nH]c3)ccc2CN1Cc1cccs1 [Compound 28, 6-(1H-Pyrazol-4-yl)-2-(thiophen-2-ylmethyl)isoindolin-1-one] — 28-fold lower, 0.091 µM
- CCOc1cccc([C@@H](C)N2Cc3ccc(-c4cn[nH]c4)cc3C2=O)c1 [Compound 29, 2-[(1R)-1-(3-ethoxyphenyl)ethyl]-6-(1H-pyrazol-4-yl)isoindolin-1-one] — 430-fold lower, 0.006 µM
- COc1cccc([C@@H](C)N2Cc3ccc(-c4cn[nH]c4)c(F)c3C2=O)c1 [Compound 30, 7-fluoro-2-[(1R)-1-(3-methoxyphenyl)ethyl]-6-(1H-pyrazol-4-yl)isoindolin-1-one] — lower, < 0.005 µM
- CC(C)NC(=O)c1cccc([C@@H](C)N2Cc3ccc(-c4cn[nH]c4)cc3C2=O)c1 [Compound 31] — 2.1-fold higher, 5.38 µM
- C[C@H](c1cccc(C(=O)Nc2ccc(F)c(F)c2)c1)N1Cc2ccc(-c3cn[nH]c3)cc2C1=O [Compound 32] — 9.8-fold lower, 0.261 µM
- COc1cccc(CN2C(=O)c3cc(-c4ccnc(N)n4)ccc3C2CC#N)c1 (stereo not drawn) [Compound 33] — 26-fold lower, 0.098 µM
- O=C(Nc1ccc(F)c(F)c1)c1cccc(CN2Cc3ccc(-c4cn[nH]c4)cc3C2=O)c1 [Compound 34] — 430-fold lower, 0.006 µM
- COc1cccc(CN2Cc3cc(F)c(-c4cn[nH]c4)cc3C2=O)c1 [Compound 35, 5-fluoro-2-[(3-methoxyphenyl)methyl]-6-(1H-pyrazol-4-yl)isoindolin-1-one] — 510-fold lower, 0.005 µM
- COc1cccc(CN2Cc3cc(F)c(-c4ccnc(N)n4)cc3C2=O)c1 [Compound 36] — 11-fold lower, 0.241 µM
- CNC(=O)c1cc(-c2ccc3c(c2)C(=O)N(Cc2cccc(OC)c2)C3)ccn1 [Compound 37, 4-(2-(3-methoxybenzyl)-3-oxoisoindolin-5-yl)-N-methylpicolinamide] — higher, > 20 µM
- CCOc1cccc(CN2C(=O)c3cc(-c4c[nH]nn4)ccc3C2(C)C)c1 [Compound 39, 2-(3-Ethoxybenzyl)-3,3-dimethyl-6-(1H-1,2,3-triazol-4-yl)isoindolin-1-one] — 13-fold lower, 0.196 µM
- COc1cccc([C@@H](C)N2Cc3ccc(-n4cn[nH]c4=O)cc3C2=O)c1 [Compound 40, (R)-2-(1-(3-methoxyphenyl)ethyl)-6-(5-oxo-1,5-dihydro-4H-1,2,4-triazol-4-yl)isoindolin-1-one] — 22-fold lower, 0.115 µM
- COc1cccc(CN2C(=O)c3cc(-c4cn[nH]c4)ccc3C2(CCO)CCO)c1 [Compound 41, 3,3-bis(2-hydroxyethyl)-2-(3-methoxybenzyl)-6-(1H-pyrazol-4-yl)isoindolin-1-one] — 75-fold lower, 0.034 µM
- COc1cccc(CN2C(=O)c3cc(-c4cn[nH]c4)ccc3C23CCCC3)c1 [Compound 42, 2′-(3-methoxybenzyl)-5′-(1H-pyrazol-4-yl)spiro[cyclopentane-1,1′-isoindolin]-3′-one] — 430-fold lower, 0.006 µM
- O=C1c2cc(-c3cn[nH]c3)ccc2CN1Cc1ccc(F)s1 [Compound 43, 2-((5-Fluorothiophen-2-yl)methyl)-6-(1H-pyrazol-4-yl)isoindolin-1-one] — 29-fold lower, 0.088 µM
- COc1cccc(CN2Cc3ccc(-n4cn[nH]c4=O)cc3C2=O)c1 [Compound 44, 2-(3-methoxybenzyl)-6-(5-oxo-1,5-dihydro-4H-1,2,4-triazol-4-yl)isoindolin-1-one] — 6.7-fold lower, 0.382 µM
- CCOc1cccc(CN2C(=O)c3cc(-n4cn[nH]c4=O)ccc3C2(C)C)c1 [Compound 45, 2-(3-ethoxybenzyl)-3,3-dimethyl-6-(5-oxo-1,5-dihydro-4H-1,2,4-triazol-4-yl)isoindolin-1-one] — 1.6-fold lower, 1.62 µM
- COc1cccc(CN2C(=O)c3cc(-c4cn[nH]c4)ccc3C23CCC(O)C3)c1 (stereo not drawn) [Compound 46, 3-hydroxy-2′-(3-methoxybenzyl)-5′-(1H-pyrazol-4-yl)spiro[cyclopentane-1,1′-isoindolin]-3′-one] — 370-fold lower, 0.007 µM
- CNC(=O)c1nccc(-c2ccc3c(c2)C(=O)N(Cc2ccc(OC)cc2)C3)n1 [Compound 47, 4-(2-(4-methoxybenzyl)-3-oxoisoindolin-5-yl)-N-methylpyrimidine-2-carboxamide] — 3.9-fold higher, ~10 µM
- CCOc1cccc([C@@H](C)N2Cc3ccc(-c4cn[nH]c4)c(F)c3C2=O)c1 [Compound 48] — 260-fold lower, 0.01 µM
- COc1cccc([C@@H](C)N2C(=O)c3cc(-c4cn[nH]c4)ccc3C2CCO)c1 (stereo partly drawn) [Compound 49, 3-(2-hydroxyethyl)-2-((R)-1-(3-methoxyphenyl)ethyl)-6-(1H-pyrazol-4-yl)isoindolin-1-one] — lower, < 0.005 µM
- COc1cccc(CN2Cc3ccc(-c4ccnc5[nH]ccc45)cc3C2=O)c1 [Compound 50] — 7.7-fold lower, 0.334 µM
- COc1ccc(OC)c(C(CO)N2Cc3ccc(-c4cn[nH]c4)cc3C2=O)c1 (stereo not drawn) [Compound 52, 2-(1-(2,5-dimethoxyphenyl)-2-hydroxyethyl)-6-(1H-pyrazol-4-yl)isoindolin-1-one] — 3.5-fold lower, 0.742 µM
- CCOc1cccc(C(CO)N2Cc3ccc(-c4cn[nH]c4)cc3C2=O)c1 (stereo not drawn) [Compound 53, 2-(2-Hydroxy-1-(3-ethoxyphenyl)ethyl)-6-(1H-pyrazol-4-yl)isoindolin-1-one] — 320-fold lower, 0.008 µM
- COC(=O)COc1cccc(CN2Cc3ccc(-c4ccnc5[nH]ccc45)cc3C2=O)c1 [Compound 54] — 8.8-fold lower, 0.292 µM
- O=C(O)COc1cccc(CN2Cc3ccc(-c4cn[nH]c4)cc3C2=O)c1 [Compound 55] — 230-fold lower, 0.011 µM
- COCC(c1cccc(OC)c1)N1Cc2ccc(-c3cn[nH]c3)cc2C1=O (stereo not drawn) [Compound 59, 2-(2-methoxy-1-(3-methoxyphenyl)ethyl)-6-(1H-pyrazol-4-yl)isoindolin-1-one] — 280-fold lower, 0.009 µM
- COc1cccc(C(COCC(=O)O)N2Cc3ccc(-c4cn[nH]c4)cc3C2=O)c1 (stereo not drawn) [Compound 60, 2-(2-(3-methoxyphenyl)-2-(1-oxo-6-(1H-pyrazol-4-yl)isoindolin-2-yl)ethoxy)acetic acid] — 150-fold lower, 0.017 µM
